This is an account of results in patent US6410594B1, “Substituted cyclopentane compounds useful as neuraminidase inhibitors” (Biocryst Pharmaceuticals, Inc., priority 1996, dated 2002).

Data set [1] concerns the target H1N9 Influenza Neuraminidase (Influenza A virus, UniProt P03472). In words: biochemical. The arrangement: species or system influenza virus (H1N9 strain). To be noted: 10 min at 37° C.; read-out: Inhibition of H1N9 Influenza Neuraminidase IC50.

For orientation: melting point means the temperature, or range, at which the solid turns liquid. What is called IC50 is the concentration needed to halve the response being measured.

Structures can show the parent of a compound that is named as a salt.

Chain of H1N9 Influenza Neuraminidase (P03472 83-470 limits assumed): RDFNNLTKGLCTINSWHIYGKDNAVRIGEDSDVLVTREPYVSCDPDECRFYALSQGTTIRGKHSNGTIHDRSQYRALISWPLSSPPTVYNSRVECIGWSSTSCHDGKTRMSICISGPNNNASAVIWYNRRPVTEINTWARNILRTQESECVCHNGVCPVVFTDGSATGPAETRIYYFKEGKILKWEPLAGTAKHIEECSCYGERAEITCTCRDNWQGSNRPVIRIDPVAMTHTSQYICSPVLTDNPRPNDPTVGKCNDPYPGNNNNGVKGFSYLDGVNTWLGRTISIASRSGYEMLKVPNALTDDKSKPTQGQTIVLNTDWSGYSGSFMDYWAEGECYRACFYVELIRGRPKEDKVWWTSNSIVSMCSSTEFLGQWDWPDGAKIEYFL

Consider `CC(=O)NC(COCc1ccccc1)[C@H]1C[C@@](O)(C(=O)O)C[C@@H]1N` (some centres unmarked) (as salt: ammonium), for which the melting point lay within 37 to 39 °C. `CC(=O)NC(CO)[C@H]1C[C@@](O)(C(=O)O)C[C@@H]1N` (some centres unmarked) (as salt: ammonium) gave a melting point of 83 to 85 °C. The same measure, in the same setting: the same measure for `CCC=CC(NC(C)=O)[C@H]1CC(C(=O)O)C[C@@H]1NC(=N)N` (some centres unmarked) (as salt: salt): 62 to 64 °C; for `CON(C)CCC(=O)C(NC(C)=O)[C@H]1CC(C(=O)O)C[C@@H]1NC(=N)N` (some centres unmarked) (as salt: salt) [Example 20]: 189 to 192 °C; for `CCCN(CCC)C(=O)C(NC(C)=O)[C@H]1C[C@@](O)(C(=O)O)C[C@@H]1NC(=N)N` (some centres unmarked) (as salt: salt) [Example 23, t-3-{[(Amino)(imino)methyl]amino}-c-4-[(di-n-propylaminocarbonyl)(methylcarbonylamino)-methyl]-t-hydroxycyclpentan-r-carboxylic acid trifluoroacetic acid (4:5)]: 153 to 155 °C.

As to `CC(=O)NC[C@@H]1C[C@H](C(=O)O)C[C@H]1NC(=N)N` (relative stereo) [Example 3, t-3-{[(Amino)(imino)methyl]amino}-c-4-[(methylcarbonylamino)methyl]-cyclopentan-r-carboxylic acid trifluoroacetic acid [1:1.25]], the IC50 in data set [1] came to 115 µM. Same read-out and setting: the same measure for `N=C(N)NC[C@@H]1C[C@H](C(=O)O)C[C@H]1NC(=N)N` (relative stereo) [Example 5, t-3-{[(Amino)(imino)methyl]amino}-c-4-{{[(amino)(imino)methyl]amino}methyl}cyclopentan-r-carboxylic acid dihydrochloride hydrate 2-propanol (5:10:5:2)]: 280 µM. `CC(=O)NC(C(O)C(O)CO)[C@H]1CC(C(=O)O)C[C@@H]1N` (single isomer, unassigned) (as salt: salt) showed a melting point of 58 to 62 °C.

Turning to `CCCN(CCC)C(=O)C(NC(C)=O)[C@H]1C[C@@](O)(C(=O)O)C[C@@H]1N` (single isomer, unassigned) (as salt: salt), the melting point was in the range of 168 to 170 °C.

Regarding `CCN(CC)C(=O)C(NC(C)=O)[C@H]1C[C@@H](C(=O)O)C[C@@H]1NC(=N)N` (single isomer, unassigned) (as salt: trifluoroacetic acid salt), the melting point was > 110 °C (dec.). Same read-out and setting: then `CC(=O)NC(C(O)C(O)CO)[C@H]1CC(C(=O)O)C[C@@H]1NC(=N)N` (single isomer, unassigned; isomer a) (as salt: salt) [Example 12, 3β-{[(Amino)(imino)methyl]amino}-4α-[(1-methylcarbonylamino) (2,3,4-trihydroxy)butyl)butyl]-cyclonentancarboxylic acid trifluoroacetic acid (1:2) (isomer A at C-1, isomer A at C-6, isomer B at C-7)], with 76 to 80 °C; and `CC(=O)NC(COC(=O)C(F)(F)F)[C@H]1C[C@](O)(C(=O)O)C[C@@H]1NC(=N)N` (single isomer, unassigned; isomer a) (as salt: salt) [Example 16, c-3-{[(Amino)(imino)methyl]amino}-t-1-hydroxy-t-4-[(1-methylcarbonylamino)(2-trifluoromethyl-carbonyloxy)ethyl]cyclopentan-r-carboxylic acid trifluoroacetic acid (4:1) (isomer A at C-6)], with 148 to 160 °C. Consider `CC(=O)NC(CO)[C@H]1C[C@@](O)(C(=O)O)C[C@@H]1NC(=N)N` (single isomer, unassigned; isomer a) [Example 9, t-3-{[(Amino)(imino)methyl]amino}-t-1-hydroxy-c-4-[(2-hydroxymethyl)(1-methylcarbonyl-amino)ethyl]cyclopentan-r-carboxylic acid trifluoroacetic acid diethyl ether [20:15:2] (isomer A at C-6)], for which, in data set [1], the IC50 turned out to be 600 µM. Turning to `CC(=O)NC(C(O)C(O)CO)[C@H]1CC(C(=O)O)C[C@@H]1N` (single isomer, unassigned; isomer a) [Example 10, 3β-amino-4α-[(1-methylcarbonylamino)(2,3,4-trihydroxy)butyl]cyclopentancarboxylic acid trifluoroacetic acid (1:1) (isomer A at C-6)], the half-maximal inhibitory concentration (IC50) in data set [1] amounted to 600 µM. Same read-out and setting: then `CC(=O)NC(C(O)C(O)CO)[C@H]1CC(C(=O)O)C[C@@H]1NC(=N)N` (single isomer, unassigned; isomer a) [Example 12, 3β-{[(Amino)(imino)methyl]amino}-4α-[(1-methylcarbonylamino) (2,3,4-trihydroxy)butyl)butyl]-cyclonentancarboxylic acid trifluoroacetic acid (1:2) (isomer A at C-1, isomer A at C-6, isomer B at C-7)], with 7.5 µM. On to `CC(=O)NC(COC(=O)C(F)(F)F)[C@H]1C[C@](O)(C(=O)O)C[C@@H]1NC(=N)N` (single isomer, unassigned; isomer a) [Example 16, c-3-{[(Amino)(imino)methyl]amino}-t-1-hydroxy-t-4-[(1-methylcarbonylamino)(2-trifluoromethyl-carbonyloxy)ethyl]cyclopentan-r-carboxylic acid trifluoroacetic acid (4:1) (isomer A at C-6)], for which, in data set [1], the IC50 was 70 µM. For `CC(=O)NC(C(O)C(O)CO)[C@H]1CC(C(=O)O)C[C@@H]1NC(=N)N` (single isomer, unassigned; isomer b) (as salt: salt) [Example 13, 3β-{[(Amino)(imino)methyl]amino}-4α-[(1-methylcarbonylamino)(2,3,4-trihydroxy)butyl]-cyclopentancarboxylic acid trifluoroacetic acid (1:2) (isomer B at C-1, isomer A at C-6, isomer B at C-7)], the melting point lay within 124 to 128 °C. The same measure, in the same setting: then `CC(=O)NC(C(O)C(O)CO)[C@H]1CC(C(=O)O)C[C@@H]1NC(=N)N` (single isomer, unassigned; isomer b) (as salt: salt) [Example 14, 3β-{[(Amino)(imino)methyl]amino}-4α-[(1-methylcarbonylamino)(2,3,4-trihydroxy)butyl]cyclo-pentancarboxylic acid trifluoroacetic acid (4:9) (isomer B at C-6, isomer A at C-1, C-7 and/or C-8)], with 125 to 135 °C; and `CC(=O)NC(C(O)C(O)CO)[C@H]1CC(C(=O)O)C[C@@H]1NC(=N)N` (single isomer, unassigned; isomer b) (as salt: salt) [Example 15, 3β-{[(Amino)(imino)methyl]amino}-4α-[(1-methylcarbonylamino)(2,3,4-trihydroxy)butyl]cyclo-pentancarboxylic acid trifluoroacetic acid (5:13) (isomer B at C-6, isomer B at C-1, C-7 and/or C-8)], with 140 to 145 °C; and `CC(=O)NC(COC(=O)C(F)(F)F)[C@H]1C[C@](O)(C(=O)O)C[C@@H]1NC(=N)N` (single isomer, unassigned; isomer b) (as salt: salt) [Example 17, c-3-{[(Amino)(imino)methyl]amino}-t-1-hydroxy-t-4-[(1-methylcarbonylamino)(2-trifluoromethyl-carbonyloxy)ethyl]cyclopentan-r-carboxylic acid trifluoroacetic acid (4:3) (isomer B at C-6)], with 210 to 220 °C.

As to `CC(=O)NC(CO)[C@H]1CC(C(=O)[O-])C[C@@H]1NC(=N)N.[Na+]` (single isomer, unassigned; isomer b) (hydrate or solvate) [Example 7, Sodium 3β-{[(amino)(imino)methyl]amino}-4α-[(2-hydroxy)(1-methylcarbonylamino)ethyl]-cyclopentan-r-carboxylate:diethylether:hydrate (12:4:3), isomer B], the melting point stood at 65 °C. For the compound `CC(=O)NC(CO)[C@H]1CC(C(=O)O)C[C@@H]1NC(=N)N` (single isomer, unassigned; isomer b) [Example 7, Sodium 3β-{[(amino)(imino)methyl]amino}-4α-[(2-hydroxy)(1-methylcarbonylamino)ethyl]-cyclopentan-r-carboxylate:diethylether:hydrate (12:4:3), isomer B], the IC50 in data set [1] is 3800 µM. On the same count and under the same terms, the same measure for `CC(=O)NC(C(O)C(O)CO)[C@H]1CC(C(=O)O)C[C@@H]1NC(=N)N` (single isomer, unassigned; isomer b) [Example 13, 3β-{[(Amino)(imino)methyl]amino}-4α-[(1-methylcarbonylamino)(2,3,4-trihydroxy)butyl]-cyclopentancarboxylic acid trifluoroacetic acid (1:2) (isomer B at C-1, isomer A at C-6, isomer B at C-7)]: 4.3 µM; for `CC(=O)NC(C(O)C(O)CO)[C@H]1CC(C(=O)O)C[C@@H]1NC(=N)N` (single isomer, unassigned; isomer b) [Example 14, 3β-{[(Amino)(imino)methyl]amino}-4α-[(1-methylcarbonylamino)(2,3,4-trihydroxy)butyl]cyclo-pentancarboxylic acid trifluoroacetic acid (4:9) (isomer B at C-6, isomer A at C-1, C-7 and/or C-8)]: 40 µM; for `CC(=O)NC(C(O)C(O)CO)[C@H]1CC(C(=O)O)C[C@@H]1NC(=N)N` (single isomer, unassigned; isomer b) [Example 15, 3β-{[(Amino)(imino)methyl]amino}-4α-[(1-methylcarbonylamino)(2,3,4-trihydroxy)butyl]cyclo-pentancarboxylic acid trifluoroacetic acid (5:13) (isomer B at C-6, isomer B at C-1, C-7 and/or C-8)]: 50 µM.

As for `CC(=O)NC(COC(=O)C(F)(F)F)[C@H]1C[C@](O)(C(=O)O)C[C@@H]1NC(=N)N` (single isomer, unassigned; isomer b) [Example 17, c-3-{[(Amino)(imino)methyl]amino}-t-1-hydroxy-t-4-[(1-methylcarbonylamino)(2-trifluoromethyl-carbonyloxy)ethyl]cyclopentan-r-carboxylic acid trifluoroacetic acid (4:3) (isomer B at C-6)], the 50% inhibitory concentration (IC50) in data set [1] was 2000 µM.
